Test results reported in patent US10577382B2, “Fused heterocyclic compound” (TAKEDA PHARMACEUTICAL COMPANY LIMITED, priority 2016, dated 2020).

Experiments:
p53 protein = assay: p53 induction activity in HCT116 cells (western blot); type: cell-based, human; conditions: 300 nM, 16 hours, relative to control group
Protocol: 1000 μl (8,0000 cells/well) of a cell suspension of human colon adenocarcinoma cells HCT116 (purchased from ATCC) was seeded in a 12-well plate, and cultured at 37° C. for 2 days in a 5% CO2 gas incubator. The test compound solution was added to a final concentration of 300 nM, and the mixture was cultured for 16 hours. The plate was washed with PBS, a protein extract (10% glycerol, 1% sodium dodecyl sulfate, 62.5 mM Tris-HCl (pH: 7.5)) was then added to dissolve the cells, and the solution was treated at 95° C. for 5 minutes. Thereafter, the amount of protein was determined using BCA Protein Assay Kit (Thermo Fisher Scientific).
The amount of the protein in each sample was adjusted, SDS-PAGE was then performed, and the protein was transferred to a PVDF membrane using an iBlot (registered trademark) gel transfer system (Invitrogen). […] The membrane was washed in the same procedure as described above, a phosphorylated CLK2 protein, a MDM4 protein, a p53 protein and a p21 protein each labeled with an antibody were then made chemiluminescent using ImmunoStar ZETA (Wako Pure Chemical Industries, Ltd.), and luminescence was detected with LAS-3000 Image Analyzer (Fujifilm Corporation). The luminescence intensity was determined using Multi Gauge Ver. 3.1 (Fujifilm Corporation), and quantified. […]

SK-MEL-28-MYC cells = assay: Growth inhibitory action on MYC-induced SK-MEL-28-MYC cells (CellTiter-Glo); type: cell-based, human; conditions: 125 nM, 3 days
Text: Human MYC cDNA was inserted downstream of the TRE of a lentiviral vector (modified pTRIPZ: GE Healthcare) having a tetracycline responsive sequence (TRE) in the promoter region. The produced virus was infected with human malignant melanoma cells SK-MEL-28 (purchased from ATCC) to establish SK-MEL-28 cells (SK-MEL-28-MYC) inducing expression of MYC in the presence of doxycycline (Takara Bio Inc.) which is a tetracycline derivative. SK-MEL-28 cells (SK-MEL-28-Control) having an empty vector with only modified pTRIPZ were also established. 20 μL/well of 2.5 μg/mL doxycycline-containing medium was added to a 96-well plate, and 80 μl/well (1,000 cells/well) of a cell suspension was added, and cultured at 37° C. for 2 days in a 5% CO2 gas incubator. Thereafter, 100 μl of a 250 nM test compound solution was added (final concentration: 125 nM), and the mixture was further cultured for 3 days. 50 µl/well of a CellTiter-Glo™ Luminescent Cell Viability Assay reagent (Promega Corporation) was added to a 96-well plate, the amount of luminescence was measured by a luminometer, and the amount of remaining ATP was determined as a cell amount. The inhibition ratio (%) of cell growth by the test compound was calculated in accordance with the following expression. Inhibition ratio (%)=(1−(amount of luminescence of test compound)÷(amount of luminescence of control group))×100

CLK2 enzyme = molecular target: T1, CLK2 enzyme (Homo sapiens, UniProt P49760); assay: Measurement of CLK2 inhibitory activity (LANCE time-resolved fluorescence, ULight-labeled MBP peptide); type: biochemical; conditions: compound 1 μM; ATP 1 mM; read-out: CLK2 activity inhibition ratio at compound concentration of 1 μM (ATP 1 mM)
T1 construct: purchased Thermo Fisher Scientific
Protocol: A test compound dissolved in DMSO was added to a reaction solution (50 mM HEPES (pH: 7.5), 10 mM MgCl2, 1 mM EGTA, 2 mM DTT, 0.01% Tween 20, 0.01% BSA) containing a CLK2 enzyme (Thermo Fisher Scientific) and an ULight-labeled MBP peptide (PerkinElmer), and the mixture was then reacted at room temperature for 10 minutes. An ATP solution was added to a final concentration of 1 mM to initiate an enzyme reaction, and the reaction was carried out at room temperature for 60 minutes. A europium-labeled anti-phosphorylated MBP antibody (PerkinElmer) and a LANCE Detection buffer (PerkinElmer) containing EDTA with a final concentration of 20 mM were added to stop the reaction, the mixture was left standing for 60 minutes, and the time-resolved fluorescence value (excitation 320 nm, and emission 615 nm and 665 nm) was measured by Envision (PerkinElmer). The inhibition ratio (%) of CLK2 by the test compound was calculated in accordance with the following expression. Inhibition ratio (%)=(1−(count of test compound−blank)÷(control−blank))×100
The count of the CLK2 enzyme reaction solution without addition of the compound was described as a control, and the count without addition of the compound and addition of the CLK2 enzyme was described as a blank. The concentration at which the inhibition ratio was 50% was defined as an IC50 value.

T1 sequence (P49760 whole entry): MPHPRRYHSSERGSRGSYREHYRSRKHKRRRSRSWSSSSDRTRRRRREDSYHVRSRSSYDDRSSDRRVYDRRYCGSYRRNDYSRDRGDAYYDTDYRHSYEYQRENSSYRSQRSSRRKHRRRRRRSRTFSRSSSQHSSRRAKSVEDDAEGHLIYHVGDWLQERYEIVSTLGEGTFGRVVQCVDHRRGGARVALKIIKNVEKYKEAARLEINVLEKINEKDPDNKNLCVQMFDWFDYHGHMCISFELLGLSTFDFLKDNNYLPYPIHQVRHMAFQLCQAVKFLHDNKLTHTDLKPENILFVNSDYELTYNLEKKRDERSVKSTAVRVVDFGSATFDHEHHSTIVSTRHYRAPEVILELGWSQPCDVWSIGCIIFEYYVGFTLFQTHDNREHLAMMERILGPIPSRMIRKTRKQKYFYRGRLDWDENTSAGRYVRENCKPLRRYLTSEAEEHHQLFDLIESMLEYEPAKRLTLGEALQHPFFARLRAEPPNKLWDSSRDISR

## COc1ncnn2ccc(-c3cnc4nc(C)n(Cc5nnc([C@@H](C)F)o5)c4c3)c12 [Example 286, 1-((5-((1R)-1-fluoroethyl)-1,3,4-oxadiazol-2-yl)methyl)-6-(4-methoxypyrrolo[2,1-f][1,2,4]triazin-5-yl)-2-methyl-1H-imidazo[4,5-b]pyridine]
p53 protein
  Increase ratio (p53): 620.7%
SK-MEL-28-MYC cells; Doxycycline (+), MYC induced
  Inhibition ratio (%) of cell growth, Doxycycline (+): 69.3%
SK-MEL-28-MYC cells; Doxycycline (−)
  Inhibition ratio (%) of cell growth, Doxycycline (−): 24.7%
CLK2 enzyme
  inhibition at 1 µM: 100%
